Three molecules from ChEMBL document CHEMBL3779786, “Tabtoxinine--lactam is a stealth -lactam antibiotic that evades -lactamase-mediated antibiotic resistance” (Medchemcomm, 2016) can be followed below.

Series [1] deals with Escherichia coli. In words: Antibacterial activity against Escherichia coli BL21(DE3) in glutamine-free minimal media after 24 hrs by broth microdilution method. It counts as functional. On the technique in general: In broth dilution the organism is exposed to a series of concentrations in liquid medium.
Series [2] concerns Escherichia coli. The series can be described thus: Antibacterial activity against Escherichia coli DH5alpha expressing beta lactamase SHV-12 in glutamine-free minimal media after 24 hrs by broth microdilution method. It counts as functional. The note with it: DH5[alpha].
In series [3] the test system is Escherichia coli. In words: Antibacterial activity against Escherichia coli DH5alpha expressing beta lactamase VIM-2 in glutamine-free minimal media after 24 hrs by broth microdilution method. The class given is functional. The note with it: DH5[alpha].
Series [4] relates to Escherichia coli. The series can be described thus: Antibacterial activity against Escherichia coli DH5alpha expressing beta lactamase NDM-1 in glutamine-free minimal media after 24 hrs by broth microdilution method. It counts as functional. The following applies: DH5[alpha].
Series [5] concerns Escherichia coli. The series can be described thus: Antibacterial activity against Escherichia coli DH5alpha expressing beta lactamase TEM-24 in glutamine-free minimal media after 24 hrs by broth microdilution method. It counts as functional. The following applies: DH5[alpha].
Series [6] concerns Escherichia coli. The series can be described thus: Antibacterial activity against Escherichia coli BL21(DE3) expressing beta lactamase TEM-1 in glutamine-free minimal media after 24 hrs by broth microdilution method. It counts as functional.
For series [7], the system named is Escherichia coli. The series can be described thus: Antibacterial activity against Escherichia coli DH5alpha expressing beta lactamase TEM-1 in glutamine-free minimal media after 24 hrs by broth microdilution method. It counts as functional. The note with it: DH5[alpha].
In series [8] the test system is Escherichia coli. In words: Antibacterial activity against Escherichia coli BL21(DE3) expressing beta lactamase CTX-M-9 with no leader sequence in glutamine-free minimal media after 24 hrs by broth microdilution method. It counts as functional.
The test system of series [9] is Escherichia coli. The series can be described thus: Antibacterial activity against Escherichia coli BL21(DE3) expressing beta lactamase TEM-64 in glutamine-free minimal media after 24 hrs by broth microdilution method. The class given is functional.
Series [10] concerns Escherichia coli. In words: Antibacterial activity against Escherichia coli DH5alpha expressing beta lactamase OXA-24/40 in glutamine-free minimal media after 24 hrs by broth microdilution method. The following applies: DH5[alpha]. It counts as functional.
In series [11] the test system is Escherichia coli. In words: Antibacterial activity against Escherichia coli DH5alpha expressing beta lactamase SHV-5 in glutamine-free minimal media after 24 hrs by broth microdilution method. The class given is functional. The note with it: DH5[alpha].
The test system of series [12] is Escherichia coli. In words: Antibacterial activity against Escherichia coli DH5alpha in glutamine-free minimal media after 24 hrs by broth microdilution method. It counts as functional. The following applies: DH5[alpha].
Series [13] deals with Escherichia coli. The series can be described thus: Antibacterial activity against Escherichia coli DH5alpha expressing beta lactamase KPC-3 in glutamine-free minimal media after 24 hrs by broth microdilution method. It counts as functional. The following applies: DH5[alpha].
For series [14], the system named is Escherichia coli. The series can be described thus: Antibacterial activity against Escherichia coli DH5alpha expressing beta lactamase CTX-M-15 in glutamine-free minimal media after 24 hrs by broth microdilution method. The class given is functional. The following applies: DH5[alpha].
Series [15] concerns Escherichia coli. The series can be described thus: Antibacterial activity against Escherichia coli BL21(DE3) expressing beta lactamase CTX-M-9 in glutamine-free minimal media after 24 hrs by broth microdilution method. The class given is functional.
For series [16], the system named is Escherichia coli. The series can be described thus: Antibacterial activity against Escherichia coli BL21(DE3) expressing beta lactamase TEM-1 with no leader sequence in glutamine-free minimal media after 24 hrs by broth microdilution method. It counts as functional.
Series [17] can be described thus: Drug metabolism assessed as 1 uM Escherichia coli DH5alpha beta lactamase TEM-1 mediated formation of benzyl penicilloic acid at 1 mM after 5 hrs by HPLC analysis. The following applies: escherichia coli dh5[alpha], 1000 µM. It counts as ADME.
Series [18] in a line: Drug metabolism assessed as 1 uM Escherichia coli DH5alpha beta lactamase TEM-1 mediated formation of benzyl penicilloic acid at 1 mM after 5 hrs by LCMS analysis. It counts as ADME. The note with it: escherichia coli dh5[alpha], 1000 µM.
Series [19] can be described thus: Drug metabolism assessed as 1 uM Escherichia coli DH5alpha beta lactamase CTX-M-9 mediated formation of benzyl penicilloic acid at 1 mM after 5 hrs by LCMS analysis. The following applies: escherichia coli dh5[alpha], 1000 µM. The class given is ADME.
Series [20] is described as follows: Drug metabolism assessed as 2 nM Escherichia coli DH5alpha beta lactamase CTX-M-9 mediated formation of benzyl penicilloic acid at 1 mM after 30 mins by LCMS analysis. It counts as ADME. The following applies: escherichia coli dh5[alpha], 0.5 h, 1000 µM.
The nature of series [21]: Drug metabolism assessed as 2 nM Escherichia coli DH5alpha beta lactamase CTX-M-9 mediated formation of benzyl penicilloic acid at 1 mM after 30 mins by HPLC analysis. The class given is ADME. The following applies: escherichia coli dh5[alpha], 0.5 h, 1000 µM.
Series [22] can be described thus: Drug metabolism assessed as 2 nM Escherichia coli DH5alpha beta lactamase TEM-1 mediated formation of benzyl penicilloic acid at 1 mM after 30 mins by HPLC analysis. It counts as ADME. The note with it: escherichia coli dh5[alpha], 0.5 h, 1000 µM.
Series [23] is described as follows: Drug metabolism assessed as 2 nM Escherichia coli DH5alpha beta lactamase TEM-1 mediated formation of benzyl penicilloic acid at 1 mM after 30 mins by LCMS analysis. The class given is ADME. The following applies: escherichia coli dh5[alpha], 0.5 h, 1000 µM.
The nature of series [24]: Drug metabolism assessed as 1 uM Escherichia coli DH5alpha beta lactamase CTX-M-9 mediated formation of benzyl penicilloic acid at 1 mM after 5 hrs by HPLC analysis. It counts as ADME. The following applies: escherichia coli dh5[alpha], 1000 µM.

What is called MIC90 is the lowest concentration that inhibits either 90% of growth or 90% of the strains tested, depending on the study. The low end stands for greater potency, the high end for weaker potency.

≈ marks a conversion by molar mass, not a printed value. Where only a bound is given, the exact number is not on record here.

Regarding `CC1(C)S[C@@H]2[C@H](NC(=O)[C@H](N)c3ccccc3)C(=O)N2[C@H]1C(=O)O` [AMPICILLIN], the MIC90 against Escherichia coli [1] was 0.5 µM (≈ 0.175 µg/mL); against Escherichia coli [2], greater than 128 µM; in the series with Escherichia coli [3], greater than 128 µM; in the series with Escherichia coli [4], greater than 128 µM; against Escherichia coli [5], greater than 128 µM; against Escherichia coli [6], greater than 128 µM. The MIC90 in the series with Escherichia coli [7] is greater than 128 µM; with Escherichia coli [8], 128 µM (≈ 44.7 µg/mL); against Escherichia coli [9], greater than 128 µM; against Escherichia coli [10], greater than 128 µM; against Escherichia coli [11], greater than 128 µM; in the series with Escherichia coli [12] it was 2 µM (≈ 0.699 µg/mL). The MIC90 with Escherichia coli [13] was greater than 128 µM; against Escherichia coli [14], greater than 128 µM; against Escherichia coli [15] it was 128 µM (≈ 44.7 µg/mL); in the series on Escherichia coli [16], greater than 128 µM.
On to `CC1(C)S[C@@H]2[C@H](NC(=O)Cc3ccccc3)C(=O)N2[C@H]1C(=O)O` [PENICILLIN G], for which the Drug metabolism entry in [17], in [18], in series [19], in [20], in series [21] and in series [22] was “metabolite_detected” each time. In addition, the Drug metabolism result in series [23] and in [24] was “metabolite_detected” throughout. For the same molecule, the MIC90 with Escherichia coli [1] is 4 µM (≈ 1.34 µg/mL); against Escherichia coli [6], greater than 128 µM; against Escherichia coli [8], 128 µM (≈ 42.8 µg/mL); with Escherichia coli [9], greater than 128 µM; in the series with Escherichia coli [15], 128 µM (≈ 42.8 µg/mL); against Escherichia coli [16], greater than 128 µM.
With GENTAMICIN, the MIC90 against Escherichia coli [1] was 1.4 µM; with Escherichia coli [2] it was 0.5 µM; in the series on Escherichia coli [3], 1 µM; against Escherichia coli [4] it was 1 µM; with Escherichia coli [5], 0.5 µM; in the series on Escherichia coli [6] it was 1.4 µM. The MIC90 against Escherichia coli [7] was 1 µM; in the series on Escherichia coli [8] it was 1.4 µM; with Escherichia coli [9], 1.4 µM; against Escherichia coli [10] it was 0.5 µM; in the series on Escherichia coli [11], less than 0.25 µM; with Escherichia coli [12] it was 0.25 µM. The MIC90 turned out to be 0.5 µM in the series with Escherichia coli [13], 1 µM in the series on Escherichia coli [14], 1.4 µM in the series with Escherichia coli [15] and 1.4 µM against Escherichia coli [16].
